Assay results: patent US9686984B2, “Macrocyclic picolinamides as fungicides” (DOW AGROSCIENCES LLC, priority 2014, dated 2017)
Read-outs that look alike come from different tables or passages of the source.

Assays:
Assay type in all cases: in vivo
Puccinia triticina = assay: Wheat Brown Rust (PUCCRT) disease control on wheat seedlings; details: for pest or weed control at 121.5 g/ha: Low Volume (121.5 g/H); for pest or weed control at 100 µg/mL: High Volume (100 ppm)
Procedure, shortened: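 Yuma wheat seedlings at the first-leaf stage sprayed to run-off (acetone solution in nine volumes of water, 110 ppm Triton X-100) or track-sprayed as EC with 0.1% Trycol 5941. Inoculation with P. triticina before or after treatment, then overnight dark dew at 22° C., 100% RH, then a 24° C. greenhouse. Percent control from severity vs untreated.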

Magnaporthe grisea = details: 100 ppm, 1 Day Protectant
Alternaria solani = assay: Tomato Early Blight (ALTESO) disease control; details: 100 ppm, 1 Day Protectant
Method: Technical grades of materials were dissolved in acetone, which were then mixed with nine volumes of water containing 110 ppm Triton X-100. The fungicide solutions were applied onto wheat seedlings using an automated booth sprayer to run-off. All sprayed plants were allowed to air dry prior to further handling. All fungicides were evaluated using the aforementioned method for their activity vs. all target diseases, unless stated otherwise. Wheat leaf blotch and brown rust activity were also evaluated using track spray applications, in which case the fungicides were formulated as EC formulations, containing 0.1% Trycol 5941 in the spray solutions. Wheat plants (variety Yuma) were grown from seed in a greenhouse in 50% mineral soil/50% soil-less Metro mix until the first leaf was fully emerged, with 7-10 seedlings per pot. These plants were inoculated with an aqueous spore suspension of Septoria tritici either prior to or after fungicide treatments. After inoculation the plants were kept in 100% relative humidity (one day in a dark dew chamber followed by two to three days in a lighted dew chamber at 20° C.) to permit spores to germinate and infect the leaf. The plants were then transferred to a greenhouse set at 20° C. for disease to develop. When disease symptoms were fully expressed on the 1st leaves of untreated plants, infection levels were assessed on a scale of 0 to 100 percent disease severity. Percent disease control was calculated using the ratio of disease severity on treated plants relative to untreated plants. Example M: Evaluation of Fungicidal Activity: Tomato Early Blight (Alternaria solani; Bayer Code […]) Tomato plants (variety Outdoor Girl) were propagated in soil-less Metro mix, with each pot having one plant, and used when 12 to 14 days old. Test plants were inoculated with an aqueous spore suspension of Alternaria solani 24 hr after fungicide treatments. […]

Glomerella lagenarium = assay: Cucumber Anthracnose (COLLLA) disease control; details: 100 ppm, 1 Day Protectant
Method: Technical grades of materials were dissolved in acetone, which were then mixed with nine volumes of water containing 110 ppm Triton X-100. The fungicide solutions were applied onto wheat seedlings using an automated booth sprayer to run-off. All sprayed plants were allowed to air dry prior to further handling. All fungicides were evaluated using the aforementioned method for their activity vs. all target diseases, unless stated otherwise. Wheat leaf blotch and brown rust activity were also evaluated using track spray applications, in which case the fungicides were formulated as EC formulations, containing 0.1% Trycol 5941 in the spray solutions. Wheat plants (variety Yuma) were grown from seed in a greenhouse in 50% mineral soil/50% soil-less Metro mix until the first leaf was fully emerged, with 7-10 seedlings per pot. These plants were inoculated with an aqueous spore suspension of Septoria tritici either prior to or after fungicide treatments. After inoculation the plants were kept in 100% relative humidity (one day in a dark dew chamber followed by two to three days in a lighted dew chamber at 20° C.) to permit spores to germinate and infect the leaf. The plants were then transferred to a greenhouse set at 20° C. for disease to develop. When disease symptoms were fully expressed on the 1st leaves of untreated plants, infection levels were assessed on a scale of 0 to 100 percent disease severity. Percent disease control was calculated using the ratio of disease severity on treated plants relative to untreated plants. Example N: Evaluation of Fungicidal Activity: Cucumber Anthracnose (Glomerella lagenarium; Anamorph: Colletotrichum lagenarium; Bayer Code COLLLA) Cucumber seedlings (variety Bush Pickle) were propagated in soil-less Metro mix, with each pot having one plant, and used in the test when 12 to 14 days old. Test plants were inoculated with an aqueous spore suspension of Colletotrichum lagenarium 24 hr after fungicide treatments. […]

Venturia inaequalis = assay: Apple Scab (VENTIN) disease control; details: 100 ppm, 1 Day Protectant
Uncinula necator = assay: Grape Powdery Mildew (UNCINE) disease control; details: 100 ppm, 1 Day Protectant
[1] = 24 h, 1 Day Protectant, read-out: PUCCRT disease control, 1 DP
[2] = 72 h, 3 Day Curative, read-out: PUCCRT disease control, 3 DC

Row | Compound | pest or weed control at 121.5 g/ha (Puccinia triticina; [1]) | pest or weed control at 121.5 g/ha (Puccinia triticina; [2]) | PYRIOR disease control, 1DP (Magnaporthe grisea) | ALTESO disease control, 1DP (Alternaria solani) | COLLLA disease control, 1DP (Glomerella lagenarium) | pest or weed control at 100 µg/mL (Puccinia triticina; [1]) | pest or weed control at 100 µg/mL (Puccinia triticina; [2]) | VENTIN disease control, 1DP (Venturia inaequalis) | UNCINE disease control, 1DP (Uncinula necator)
1 | CCCC[C@H]1OCC[C@H](NC(=O)c2nccc(OC)c2OC(C)=O)C(=O)O[C@@H](C)[C@@H]1Cc1ccccc1 [Compound 2] | > 70% | > 70% | A (>70) | B (≦70) | A (>70) |  |  |  | 
2 | COc1ccnc(C(=O)N[C@H]2CCO[C@H](Cc3ccccc3)[C@@H](Cc3ccccc3)[C@H](C)OC2=O)c1OC(C)=O [Compound 3] | > 70% | > 70% | A (>70) | B (≦70) | A (>70) |  |  |  | 
3 | CCC[C@H]1OCC[C@H](NC(=O)c2nccc(OC)c2OCOC(C)=O)C(=O)O[C@@H](C)[C@@H]1Cc1ccccc1 [Compound 17] | > 70% | > 70% | A (>70) | B (≦70) | A (>70) | > 70% | > 70% | B (≦70) | A (>70)
